Patent publication US10336724B2, “D-amino acid oxidase inhibitors and therapeutic uses thereof” (SyneuRx International (Taiwan) Corp., priority 2017, dated 2019)

How the values were obtained:
hDAAO (human DAAO) = hDAAO (human DAAO) (Homo sapiens (Human), UniProt P14920); test: hDAAO (human DAAO) activity, D-serine substrate, Amplex Red fluorescence; assay type: biochemical
Protocol: The hDAAO (human DAAO) activity was measured by using D-serine as a substrate to produce H2O2. The produced H2O2 would be oxidized by peroxidase, and the produced free radicals would further react with Amplex Red reagent to emit fluorescence. The intensity of fluorescence at 590 nm would be measured to represent the activity of hDAAO. All compounds were dissolved in DMSO. Each compound was diluted with DMSO in 3-fold serial dilution to create a 9-point dose response curve. Each sample was added in triplicate, 1 μL/well, into 96-well black plates. Positive control wells were added with 1 μL of DMSO. Then 49 μL of assay buffer (100 mM Tris-HCl, pH 8.5) containing 1.2 ng/mL hDAAO, 900 nM FAD, 0.2 units/mL HRP, and 100 μM Amplex Red was added to each well of the plate using a multichannel pipette. Next, 50 μL of 100 mM D-Serine in assay buffer was added. The reaction plates were then incubated in the dark at room temperature. The fluorescence readout was detected at 0 and 20 minute by Molecular Device Gemini EM fluorescence reader using the following settings: excitation filter 530 nm, and emission filter 590 nm. The percentage of inhibition values for each well was calculated with the following equation: The percentage of inhibition=(fluorescencesample, 20 min−fluorescencesample, 0 min)/(fluorescenceDMSO, 20 min−fluorescenceDMSO, 0 min)×100%
(§1) The nonlinear curve fitting model in GraphPad Prism 5 was used to calculate IC50 value for each compound.

[1] = molecular target: pkDAAO (porcine kidney DAAO) (Sus scrofa (Pig), UniProt P00371); test: pkDAAO (porcine kidney DAAO) activity, D-Proline substrate, OPD OD450; assay type: biochemical
Chain of pkDAAO (porcine kidney DAAO) (P00371 whole entry): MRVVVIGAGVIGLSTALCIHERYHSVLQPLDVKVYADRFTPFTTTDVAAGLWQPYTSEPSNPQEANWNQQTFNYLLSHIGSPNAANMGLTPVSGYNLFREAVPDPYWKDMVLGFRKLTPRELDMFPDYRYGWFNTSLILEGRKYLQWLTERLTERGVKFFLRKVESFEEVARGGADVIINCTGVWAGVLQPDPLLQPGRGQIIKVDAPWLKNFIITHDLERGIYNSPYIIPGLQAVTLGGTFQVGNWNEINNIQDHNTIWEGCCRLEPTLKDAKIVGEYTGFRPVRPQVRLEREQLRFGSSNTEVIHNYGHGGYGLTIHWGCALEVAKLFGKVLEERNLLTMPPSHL
Protocol: The pkDAAO (porcine kidney DAAO) activity was measured by using D-Proine as a substrate to produce hydrogen peroxide (H2O2). The produced H2O2 would be oxidized by peroxidase, and the produced free radicals would further react with 1,2-Phenylenediamine (OPD) reagent. […] The OD450 would be measured to represent the activity of pkDAAO. All compounds were dissolved in DMSO. Each compound was diluted with DMSO in 3 or 4-fold serial dilution to create a 9-point dose response curve. Each sample was added in triplicate, 10 μL/well, into 96-well assay microplate. Positive control wells were added with 10 μL of DMSO. The diluted compounds were incubated with pkDAAO in dark for 10 minutes and then reacted with D-Proline. The final reaction mixture was composed of 0.01 U/mL pkDAAO, 0.03% OPD, 25 U/mL HRP and 40 mM D-Proline in PBS. The reaction plates were then incubated in the dark at room temperature. The OD450 absorbance readout was detected at 0 and 20 minute by Molecular Device Spectra Max Plus reader. The percentage of inhibition values for each well were calculated with the following equation: The percentage of inhibition=(OD450sample, 20 min−OD450sample, 0 min)/(OD450DMSO, 20 min−OD450DMSO, 0 min)×100%
as §1

Chain of hDAAO (human DAAO) (P14920 whole entry): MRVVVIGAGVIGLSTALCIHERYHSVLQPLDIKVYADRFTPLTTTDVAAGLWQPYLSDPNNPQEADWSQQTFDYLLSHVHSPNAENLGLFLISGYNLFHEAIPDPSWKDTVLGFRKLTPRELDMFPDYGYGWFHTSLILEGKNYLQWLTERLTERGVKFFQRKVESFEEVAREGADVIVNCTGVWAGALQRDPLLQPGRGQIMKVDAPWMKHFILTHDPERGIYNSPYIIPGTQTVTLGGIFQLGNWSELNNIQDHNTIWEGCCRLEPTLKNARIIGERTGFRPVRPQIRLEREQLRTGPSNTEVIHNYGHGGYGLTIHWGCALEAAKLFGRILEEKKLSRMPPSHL

Compound	IC50 (hDAAO (human DAAO)) [µM]	IC50 [1] [µM]
O=C(Oc1cc2c(Cl)cccc2[nH]c1=O)c1cc(CCc2ccc(Cl)cc2)n[nH]1 [Compound 32, 5-chloro-2-oxo-1,2-dihydroquinolin-3-yl 3-(4-chlorophenethyl)-1H-pyrazole-5-carboxylate]	0.1 to 1	0.1 to 0.5
O=C(Oc1cc(Cc2cccc3ccccc23)n[nH]c1=O)c1cc(CCc2ccccc2)n[nH]1 [Compound 62, 6-(naphthalen-1-ylmethyl)-3-oxo-2,3-dihydropyridazin-4-yl 3-phenethyl-1H-pyrazole-5-carboxylate]	0.1 to 1	0.01 to 0.1
O=C(Oc1cc(Cc2cccc3ccccc23)n[nH]c1=O)c1cc(Cc2ccccc2)n[nH]1 [Compound 77, 6-(naphthalen-1-ylmethyl)-3-oxo-2,3-dihydropyridazin-4-yl 3-benzyl-1H-pyrazole-5-carboxylate]	0.1 to 1	0.01 to 0.1
O=C(Oc1coc(CO)cc1=O)c1cc(CCc2ccc(Cl)cc2)c[nH]1 [Compound 5, 6-(hydroxymethyl)-4-oxo-4H-pyran-3-yl 4-(4-chlorophenethyl)-1H-pyrrole-2-carboxylate]	10 to 100	10 to 100
O=C(Oc1coc(CSc2ccc(Cl)cc2)cc1=O)c1cc(CCc2ccc(Cl)cc2)c[nH]1 [Compound 14, 6-(((4-chlorophenyl)thio)methyl)-4-oxo-4H-pyran-3-yl 4-(4-chlorophenethyl)-1H-pyrrole-2-carboxylate]	1 to 10	10 to 100
O=C(Oc1cc(CCc2cc(F)cc(F)c2)n[nH]c1=O)c1cc(CCc2ccc(Cl)cc2)c[nH]1 [Compound 56, 6-(3,5-difluorophenethyl)-3-oxo-2,3-dihydropyridazin-4-yl 4-(4-chlorophenethyl)-1H-pyrrole-2-carboxylate]	1 to 10	10 to 100
O=C(Oc1cc(CSc2ccc(Cl)c(Cl)c2)c[nH]c1=O)c1cc(CCc2ccccc2)n[nH]1 [Compound 49, 5-(((3,4-dichlorophenyl)thio)methyl)-2-oxo-1,2-dihydropyridin-3-yl 3-phenethyl-1H-pyrazole-5-carboxylate]	1 to 10	0.1 to 1
O=C(Oc1cc(CSc2ccc(Cl)c(Cl)c2)c[nH]c1=O)c1cc(CCc2ccccc2)c[nH]1 [Compound 50, 5-(((3,4-dichlorophenyl)thio)methyl)-2-oxo-1,2-dihydropyridin-3-yl 4-phenethyl-1H-pyrrole-2-carboxylate]	1 to 10	1 to 10
O=C(Oc1cc2c(Cl)cccc2[nH]c1=O)c1cc(CCc2ccccc2)c[nH]1 [Compound 23, 5-chloro-2-oxo-1,2-dihydroquinolin-3-yl 4-phenethyl-1H-pyrrole-2-carboxylate]	0.1 to 1	1 to 10
O=C(Oc1cc2c(Cl)cccc2[nH]c1=O)c1cc(CCc2ccc(Cl)cc2)c[nH]1 [Compound 18, 5-chloro-2-oxo-1,2-dihydroquinolin-3-yl 4-(4-chlorophenethyl)-1H-pyrrole-2-carboxylate]	0.1 to 0.5	1 to 10
O=C(Oc1cc(Cc2cccc3ccccc23)n[nH]c1=O)c1cc(CCc2ccc(F)cc2)n[nH]1 [Compound 72, 6-(naphthalen-1-ylmethyl)-3-oxo-2,3-dihydropyridazin-4-yl 3-(4-fluorophenethyl)-1H-pyrazole-5-carboxylate]	0.1 to 0.5	0.01 to 0.1
O=C(Oc1coc(CO)cc1=O)c1cc2occc2[nH]1 [Compound 9, 6-(hydroxymethyl)-4-oxo-4H-pyran-3-yl 4H-furo[3,2-b]pyrrole-5-carboxylate]	1 to 10	10 to 100

Further lines, results first:

IC50 (hDAAO (human DAAO)) [µM]	IC50 [1] [µM]	Compound
0.1 to 0.5	0.01 to 0.1	O=C(Oc1cc(CCc2cccc3ccccc23)n[nH]c1=O)c1cc(CCc2ccccc2)n[nH]1
0.1 to 0.5	0.01 to 0.1	O=C(Oc1cc(Cc2cccc3ccccc23)n[nH]c1=O)c1cc(CCc2ccccc2Cl)n[nH]1
0.1 to 0.5	0.1 to 1	O=C(Oc1cc2c(Cl)cccc2[nH]c1=O)c1cc(CCc2ccccc2)n[nH]1 [Compound 27, 5-chloro-2-oxo-1,2-dihydroquinolin-3-yl 3-phenethyl-1H-pyrazole-5-carboxylate]
0.1 to 0.5	0.01 to 0.1	O=C(Oc1cc(Cc2ccc3ccccc3c2)n[nH]c1=O)c1cc(CCc2ccccc2)n[nH]1
0.1 to 0.5	0.01 to 0.1	O=C(Oc1cc(CCc2cccc3ccccc23)n[nH]c1=O)c1cc(CCc2ccc(Cl)cc2)n[nH]1
0.1 to 0.5	0.01 to 0.1	O=C(Oc1cc(Cc2cccc3ccccc23)n[nH]c1=O)c1cc(CCc2cccc(Cl)c2)n[nH]1 [Compound 67, 6-(naphthalen-1-ylmethyl)-3-oxo-2,3-dihydropyridazin-4-yl 3-(3-chlorophenethyl)-1H-pyrazole-5-carboxylate]
